Values of other authors, collected in patent US20110082407A1, “Combination Therapies for the Treatment of Obesity” (priority 2009, published 2011).

How the values were obtained:
[1] = literature studies
[2] = in vivo

In the case of `CC(C)CC(N(C)C)C1(c2ccc(Cl)cc2)CCC1` (centres unmarked) [sibutramine], the “weight loss of body weight for drug compared with placebo” value (from here on “weight loss … compared with placebo”) [1] is given as “about 5%” and the “clinically significant side effect limiting clinical use” value [2] is given as “can cause hypertension”.

In the case of `CCN[C@@H](C)Cc1cccc(C(F)(F)F)c1` [dexfenfluramine], the “weight loss … compared with placebo” value [1] is listed as “about 5%” and the “clinically significant side effect limiting clinical use” value [2] is listed as “suspected heart valvulopathy”.

For triacetyl-beta-cyclodextrin, the “solubility in water” value is given as “insoluble”.

For `CCNC(C)Cc1cccc(C(F)(F)F)c1` (centres unmarked) [fenfluramine], the “clinically significant side effect limiting clinical use” value [2] is given as “caused heart-valve complications”.

In the case of `CCCCCCCCCCC[C@@H](C[C@@H]1OC(=O)[C@H]1CCCCCC)OC(=O)[C@H](CC(C)C)NC=O` [orlistat], the “weight loss … compared with placebo” value [1] is given as “about 5%” and the “clinically significant side effect limiting clinical use” value [2] is given as “GI side effects”.
